# Data taken from publication PMC9796306, “Multiple detection of both attractants and repellents by the dCache‐chemoreceptor SO_1056 of Shewanella oneidensis” (The Febs Journal, 2022).
# Tests used:
# [1] = target: T1, MBP-LBD1056 (ligand-binding domain of MCP SO_1056) (Shewanella oneidensis, UniProt Q8EHZ8); test: isothermal titration calorimetry; settings: read-out: apparent KD
# T1 sequence (Q8EHZ8 29-278): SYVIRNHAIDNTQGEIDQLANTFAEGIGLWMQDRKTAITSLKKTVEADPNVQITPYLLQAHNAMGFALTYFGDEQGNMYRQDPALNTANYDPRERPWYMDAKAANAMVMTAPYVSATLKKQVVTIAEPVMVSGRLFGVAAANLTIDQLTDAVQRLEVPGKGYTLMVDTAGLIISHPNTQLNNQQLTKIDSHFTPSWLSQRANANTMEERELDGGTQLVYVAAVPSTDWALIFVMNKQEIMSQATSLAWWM
# [2] = target: MBP-LBD1056 (ligand-binding domain of MCP SO_1056) (Shewanella oneidensis, UniProt Q8EHZ8, N170D)
# MBP-LBD1056 (ligand-binding domain of MCP SO_1056) (Shewanella oneidensis, UniProt Q8EHZ8, N170D), sequence (Q8EHZ8 entry or part of it N170D): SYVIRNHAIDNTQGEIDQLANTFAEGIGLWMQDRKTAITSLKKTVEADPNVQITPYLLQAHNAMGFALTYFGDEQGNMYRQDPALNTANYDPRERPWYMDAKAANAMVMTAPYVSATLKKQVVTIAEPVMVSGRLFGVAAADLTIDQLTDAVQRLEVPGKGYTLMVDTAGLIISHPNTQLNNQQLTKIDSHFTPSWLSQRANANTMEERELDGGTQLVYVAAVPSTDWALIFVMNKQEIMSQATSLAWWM
smiles,measurement,setting,value
O=C(O)C[C@H](O)C(=O)O [L-malate],Kd,[1],3.4 ± 0.3 µM
same,dTm at 1 mM,[2],2.4 °C
